“And” between values parts separate entries of the source, which are not always exact repeats. Equal entries are not always repeated.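 Step 1: Grow cells in 96-well plates. Step 2: Expose to compound for 48 hours at 5 concentrations. Step 3: Interpolate endpoints linearly; if unreached, use highest concentration. At the GI50, growth is halved. TGI denotes the concentration required for complete inhibition of growth.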
How the values were obtained:
Test in all cases: NCI-60 cell line screen, 48 h
[1] = test system: 786-0 renal
[2] = test system: CAKI-1 renal
[3] = test system: EKVX NSCLC
[4] = test system: IGROV1 ovarian
[5] = test system: MOLT-4 leukemia
[6] = test system: NCI-H460 lung
[7] = test system: RXF 393 renal
[8] = test system: SR leukemia
[9] = test system: UACC-62 melanoma
[10] = test system: ACHN renal

| SMILES | TGI [1] | TGI [2] | TGI [3] | TGI [4] | TGI [5] | TGI [6] | TGI [7] | TGI [8] | TGI [9] | TGI [10] | GI50 [1] | GI50 [10] | GI50 [2] | GI50 [4] | GI50 [5] | GI50 [6] | GI50 [7] | GI50 [8] | GI50 [9] | GI50 [3] |
| --- | --- | --- | --- | --- | --- | --- | --- | --- | --- | --- | --- | --- | --- | --- | --- | --- | --- | --- | --- | --- |
| CC(C)C1(O)C(c2ccccc2)=C(c2ccccc2)C(c2ccccc2)=C1c1ccccc1 | 74.4 µM | > 100 µM | 47 µM | > 100 µM | 9.27 µM | 46.8 µM | 13.3 µM | 36 µM | 20.9 µM |  |  |  |  |  |  |  |  |  |  |  |
| COc1ccc(-c2oc3c(OC)c(OC)c(OC)c(O)c3c(=O)c2OC)cc1OC | > 77.9 µM | > 100 µM | > 100 µM | 23.2 µM | 51.9 µM | > 83.7 µM | 87.4 µM | 45.1 µM | > 92 µM | > 100 µM |  |  |  |  |  |  |  |  |  |  |
| COC1=CC(=O)C2C(C1=O)[C@@H]1c3ccccc3C[C@H]21 (stereo not given in full) | > 100 µM | > 100 µM | > 100 µM | > 100 µM | > 100 µM | > 100 µM | > 100 µM | > 100 µM | > 100 µM | > 100 µM |  |  |  |  |  |  |  |  |  |  |
| O=C1C(c2c[nH]c3ccccc23)=C(c2c[nH]c3ccccc23)C(=O)N1O | > 25 µM | > 25 µM |  | > 25 µM | > 25 µM | > 25 µM | > 25 µM | > 25 µM | > 25 µM | > 25 µM | > 25 µM | > 25 µM | > 20.8 µM | > 25000 nM | > 25 µM | > 25 µM | > 22.7 µM | > 25 µM | 24600 nM |  |
| O=[N+]([O-])c1c(Br)cc(Br)c2c1Nc1c(ccc(Cl)c1Cl)S2 | 22.8 µM | 33.6 µM | 30.9 µM | 31.2 µM | 7.6 µM | 41.4 µM | 35.1 µM | > 26.8 µM | 33.1 µM | 30.7 µM |  |  |  |  |  |  |  |  |  |  |
| Oc1ccc(C(c2ccc(O)cc2)c2ccc(Cl)cn2)cc1 | > 100 µM | > 100 µM | 6.59 µM | 42 µM | > 100 µM | > 100 µM | 1.65 µM | > 100 µM | 17.8 µM | 22.2 µM | 36.2 µM | 0.427 µM | 22.1 µM | 378 nM | 23.7 µM | 31.6 µM | 0.0593 µM | 29.5 µM | 1590 nM | 0.349 µM |
| CC1OC(OCC2OC(Oc3c(-c4ccc(O)cc4)oc4cc(O)cc(O)c4c3=O)C(OC3OC(C)C(O)C(O)C3O)C(O)C2O)C(O)C(O)C1O (stereo not given) | > 100 µM | > 100 µM | > 100 µM | > 100 µM | > 100 µM | > 100 µM | > 100 µM | > 100 µM | > 100 µM | > 100 µM |  |  |  |  |  |  |  |  |  |  |
| CC1CCP(=O)(c2ccccc2)c2ccccc21 (stereo not given) | > 100 µM |  | > 100 µM | > 100 µM | 75.4 µM | 80.3 µM | > 100 µM | 96.9 µM | > 100 µM | > 100 µM |  |  |  |  |  |  |  |  |  |  |
| CCCCc1c2c(nc3c1CCc1cc4cc5c(nc4nc1-3)-c1nc3c(c(CCCC)c1CC5)CCCC3)CCCC2 | > 100 µM |  | > 100 µM | > 100 µM | > 100 µM | > 100 µM | 71.4 µM | > 100 µM | 52 µM | > 100 µM |  |  |  |  |  |  |  |  |  |  |
| COc1cc(/C=C\c2ccccc2)cc(OC)c1OC | > 52.8 µM | > 100 µM | > 84.9 µM | > 100 µM | 17.2 µM | 27.3 µM | 5.25 µM | 26.7 µM | 41.2 µM | > 78.5 µM |  |  |  |  |  |  |  |  |  |  |
| CCOC(=O)C1=C(C(=O)c2ccc(C)cc2)C(c2cccc([N+](=O)[O-])c2)C(C(=O)c2ccc(C)cc2)=C(C(=O)OCC)N1 | 32.9 µM | 43.5 µM | 47.1 µM | 35.3 µM | > 100 µM | > 100 µM | 68.6 µM | 35.3 µM | 33.5 µM | 28.3 µM |  |  |  |  |  |  |  |  |  |  |
| FC(F)(F)c1cc(-c2nnc3n2N=C(N2CCCC2)CS3)cc(C(F)(F)F)c1 | > 50 µM | > 50 µM | > 50 µM | > 50 µM |  | > 50 µM | > 50 µM | > 50 µM | > 50 µM | > 50 µM | 20.3 µM | 10 µM | > 50 µM | > 50000 nM |  | 7.15 µM | 26.6 µM | 48.8 µM | > 50000 nM | > 50 µM |
| CCCC(=O)Nc1cc(C(=O)N2C[C@@H]3C[C@]34C2=CC(=O)c2[nH]cc(C)c24)n(COC)c1 | 15.2 µM and 3.72 µM | 13 µM and 17.3 µM | 30 µM and 25.2 µM |  | 3.3 µM and 23.2 µM | 16.6 µM and 7.35 µM | 9.21 µM and 3.33 µM | 2.09 µM | 13.5 µM and 8.75 µM | 24.6 µM and 26.1 µM | 1.81 µM | 3.62 µM | 4.25 µM | 1350 nM | 0.523 µM | 2.62 µM |  |  | 2840 nM | 5.62 µM |
| COc1ccccc1/C=C/[N+](=O)[O-] | 3.35 µM | 46.6 µM | 58.3 µM | 8.32 µM | 6.45 µM | 4.35 µM | 2.81 µM | 5.02 µM | 4.13 µM | 3.84 µM | 1.82 µM | 2.01 µM | 2.95 µM | 2540 nM | 2.54 µM | 2.03 µM | 1.43 µM | 0.886 µM | 1950 nM | 15.3 µM |
| COc1ccccc1N=C(N)N/N=C/c1c[nH]c2ccccc12 | 26 µM | 26.7 µM | 23.2 µM | 28.9 µM | 23.4 µM | 22.8 µM | 27.3 µM | 26.9 µM | 27 µM | 22 µM |  |  |  |  |  |  |  |  |  |  |
| O=C(Nc1ccc(F)cc1)c1ccc(NC2=C(Cl)C(=O)N(Cc3ccccc3)C2=O)cc1 | 22.9 µM | 3.36 µM | 87 µM | 3.58 µM | 21 µM | > 100 µM | 32.2 µM | 2.54 µM | 38.5 µM | 27.8 µM | 10.5 µM | 14.3 µM | 1.78 µM | 1060 nM | 3.79 µM | 7.32 µM | 12.2 µM | 0.848 µM | 18100 nM | 27 µM |
| O=C(O)[C@@H]1[C@H](C(=O)O)[C@H](C(=O)O)C[C@@H]1C(=O)O | > 100 µM | > 100 µM | > 100 µM | > 100 µM | > 100 µM | > 100 µM | > 100 µM | > 100 µM | > 100 µM | > 100 µM |  |  |  |  |  |  |  |  |  |  |
